Assays:
CDK2 = biological target: T1, CDK2 (Homo sapiens, UniProt P24941); assay: CDK protein degradation activity (Western blotting), CDK2; assay type: cell-based; details: MDA-MB-231 cells, 16 hours, Western blot
T1 construct: endogenous in cells; host or cells: MDA-MB-231
In short: (§1)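 Breast cancer line MDA-MB-231, 16 h compound treatment (100 nM–10 μM final, three doses). Immunoblot quantification of CDK2/CDK9 versus tubulin, normalized to DMSO control.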

CDK9 = biological target: T2, CDK9 (Homo sapiens, UniProt P50750); assay: CDK protein degradation activity (Western blotting), CDK9; assay type: cell-based; details: MDA-MB-231 cells, 16 hours, Western blot
T2 construct: endogenous in cells; host or cells: MDA-MB-231
T2 sequence (P50750 whole entry): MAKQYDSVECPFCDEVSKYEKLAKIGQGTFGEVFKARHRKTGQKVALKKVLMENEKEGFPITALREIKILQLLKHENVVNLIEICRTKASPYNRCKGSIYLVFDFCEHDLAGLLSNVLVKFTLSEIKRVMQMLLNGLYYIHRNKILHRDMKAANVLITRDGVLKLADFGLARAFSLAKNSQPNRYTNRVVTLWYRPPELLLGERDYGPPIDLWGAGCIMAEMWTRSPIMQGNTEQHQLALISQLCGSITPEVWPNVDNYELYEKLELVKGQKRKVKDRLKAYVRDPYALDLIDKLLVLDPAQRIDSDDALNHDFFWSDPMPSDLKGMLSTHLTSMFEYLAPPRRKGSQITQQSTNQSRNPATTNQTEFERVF
In short: as §1

Row | Compound | Enzyme degradation CDK2 (% remaining) @ 0.1 μM (CDK2) [%] | Enzyme degradation CDK2 (% remaining) @ 1 μM (CDK2) [%] | Enzyme degradation CDK2 (% remaining) @ 10 μM (CDK2) [%] | Enzyme degradation CDK9 (% remaining) @ 0.1 μM (CDK9) | Enzyme degradation CDK9 (% remaining) @ 1 μM (CDK9) | Enzyme degradation CDK9 (% remaining) @ 10 μM (CDK9)
1 | Cc1cccc(C(=O)N[C@H]2C[C@@H](n3cnc4c(NCc5cccc(N6CCN(CC7CCN(c8cccc9c8C(=O)N([C@H]8CCC(=O)NC8=O)C9=O)CC7)CC6)c5)ncnc43)C2)n1 [Compound 136, N-((1s,3s)-3-(6-((3-(4-((1-(2-(2,6-dioxopiperidin-3-yl)-1,3-dioxoisoindolin-4-yl)piperidin-4-yl)methyl)piperazin-1-yl)benzyl)amino)-9H-purin-9-yl)cyclobutyl)-6-methylpicolinamide] | 100 | 100 | 60 | 10% | 70% | 40%
2 | Cc1cccc(C(=O)N[C@H]2C[C@@H](n3cnc4c(NCc5cccc(N6CCN(CC7CCN(c8ccc9c(c8)C(=O)N([C@H]8CCC(=O)NC8=O)C9=O)CC7)CC6)c5)ncnc43)C2)n1 [Compound 137, N-((1s,3s)-3-(6-((3-(4-((1-(2-(2,6-dioxopiperidin-3-yl)-1,3-dioxoisoindolin-5-yl)piperidin-4-yl)methyl)piperazin-1-yl)benzyl)amino)-9H-purin-9-yl)cyclobutyl)-6-methylpicolinamide] | 30 | 40 | 40 | 0/0/0% | 0/0/0% | 0/0/0%
3 | Cc1cccc(C(=O)NC2CC(n3cnc4c(NCCCN5CCN(C(=O)CNc6cccc7c6C(=O)N([C@@H]6CCC(=O)NC6=O)C7=O)CC5)ncnc43)C2)n1 (stereo partly drawn) [Compound 139, N-((1r,3r)-3-(6-((3-(4-((2-(2,6-dioxopiperidin-3-yl)-1,3-dioxoisoindolin-4-yl)glycyl)piperazin-1-yl)propyl)amino)-9H-purin-9-yl)cyclobutyl)-6-methylpicolinamide] | 80 | 90 | 80 | 80% | 90% | 70%
4 | Cc1cccc(C(=O)N[C@H]2C[C@H](n3cnc4c(NCCCN5CCN(C(=O)CNc6ccc7c(c6)C(=O)N([C@@H]6CCC(=O)NC6=O)C7=O)CC5)ncnc43)C2)n1 [Compound 141, N-((1r,3r)-3-(6-((3-(4-((2-(2,6-dioxopiperidin-3-yl)-1,3-dioxoisoindolin-5-yl)glycyl)piperazin-1-yl)propyl)amino)-9H-purin-9-yl)cyclobutyl)-6-methylpicolinamide] | 70 | 50 | 60 | 90% | 80% | 50%
5 | Cc1cccc(C(=O)NC2CC(n3cnc4c(NCCCN5CCN(CC6CCN(C(=O)COc7cccc8c7C(=O)N([C@@H]7CCC(=O)NC7=O)C8=O)CC6)CC5)ncnc43)C2)n1 (stereo partly drawn) [Compound 142, N-((1r,3r)-3-(6-((3-(4-((1-(2-((2-(2,6-dioxopiperidin-3-yl)-1,3-dioxoisoindolin-4-yl)oxy)acetyl)piperidin-4-yl)methyl)piperazin-1-yl)propyl)amino)-9H-purin-9-yl)cyclobutyl)-6-methylpicolinamide] | 80 | 70 | 50 | 70% | 0% | 0%

From patent publication US20260125382A1, “COMPOUNDS FOR INHIBITING OR DEGRADING CDK2 AND/OR CDK9 AND MEDICINAL USE THEREOF” (KOREA RESEARCH INSTITUTE OF CHEMICAL TECHNOLOGY, priority 2022, published 2026)
